Data as given in paper PMC11831382, “Use of Aldehyde–Alkyne–Amine Couplings to Generate Medicinal Chemistry-Relevant Linkers” (ACS Medicinal Chemistry Letters, 2025).
Entries after “also recorded” stand apart in the source; their conditions may differ.

Assays:
BRD4 = molecular target: T1, BRD4 (Homo sapiens, UniProt O60885); experiment: BRD4 degradation assay, Promega Nano-Glo HiBiT lytic assay; type: cell-based; conditions: HEK293 CRISPR HiBiT BRD4 cell line
T1 construct: endogenous in cells; host or cells: HEK293 CRISPR HiBiT BRD4 (knock-in)
Procedure: Data plotted are average ± SD of n = 3 biological replicates.
HEK293 CRISPR HIBIT BRD4 cells were seeded at 5 X 10^5 cells per well in culture medium into
Plates were incubated at 37 °C, 5% CO2 in a humidiﬁed incubator overnight. Compounds (10 mM stock in DMSO) were diluted to a half-log scale and added to the cells. Plates were further incubated at 37 °C for 18 hours.
Following incubation, 100 μL per well Promega Nano -Glo HiBiT lytic detection reagent mix (Promega Nano -Glo HiBiT Lytic Detection System #N3050), prepared according to the manufacturer´s instructions in the kit, were added. The plates were incubated on an orbital shaker for 10 min. Luminescence was measured using plate reader (BMG L abtech PHERA star).

BRD4 long and short = experiment: Western blot of BRD4 degradation; type: cell-based
Procedure: Figure 2 Representative Western blot of 7a degradation of BRD4 performed in HEK293 cell line after 18 h treatment. The experiment was done as n = 3 independent biological replicates.
The best analogue, 7a, was next shown, by Western blot, to degrade both BRD4 long and short in the 300–1000 nM range, reversed by the addition of either proteasome or neddylation inhibitors or by thalidomide.
Cell culture. HEK293 CRISPR HIBIT BRD4 cells were generated at CeTPD using CRISPR -CAS technology. Parental HEK293 and HEK293 CRISPR HIBIT BRD4 cell lines were cultured in DMEM media (Gibco), supplemented with 10% fetal bovine serum (FBS), and were kept at 37 °C, 5% CO2 in a humidiﬁed incubator.
BRD4 Degradation A ssays used a HiBiT Lytic assay. […]
(§1) Following incubation, 100 μL per well Promega Nano -Glo HiBiT lytic detection reagent mix (Promega Nano -Glo HiBiT Lytic Detection System #N3050), prepared according to the manufacturer´s instructions in the kit, were added. […] Luminescence was measured using plate reader (BMG L abtech PHERA star).
(§2) Luminescence levels in the treatment wells were normalised to DMSO-treated samples and plotted as percentage of DMSO control in GraphPad Prism (10.2.3).Western blot 5x10^5 HEK293 CRISPR HIBIT BRD4 cells were seeded into 6-well plates 24 hours before treatment. […]
(§3) Fluorescence Polarization (FP). […]

[1] = Microsomal stability (HLM); type: in vitro ADME; conditions: human, human liver microsomes
Text: (§4) Moreover, the solubility of both final compounds was low (5% PBS buffer, saline). These examples were merely chosen to showcase the synthetic potential of the chemistry rather than a medicinal chemistry-focused PROTAC optimization approach for which scope remains to optimize PK properties in future heterofunctional molecules. For example, the alkyne functionality, present in the A^3 products 2a and 2c, although present in a number of marketed, bioactive molecules,[37] even PROTACs,[38] acting as a rigid hydrophobic spacer, can be reduced by catalytic hydrogenation[39] to afford a saturated, more flexible yet possibly less metabolically labile linker.

[2] = Bidirectional permeability (Papp A-B, B-A); type: in vitro ADME; conditions: for A-B Permeability: class in words; for Papp A→B / Papp B→A: not told; for Papp A→B: A-B direction; for Papp B→A: B-A direction
Text: (§5) Figure S3 . PK data for 7a and 7c.
(§6) (2 pictures or pasted objects on this page, not shown here)

P-gp [3] = experiment: Bidirectional permeability (Papp A-B, B-A); type: in vitro ADME; conditions: not told
Text: as §5, §6

P-gp [4] = molecular target: P-gp (Homo sapiens, UniProt P08183); experiment: P-gp substrate classification from efflux ratio; type: in vitro ADME
Text: as §5, §6

Solubility = type: physicochemical; conditions: for solubility: 5% PBS buffer, saline; for solubility (qualitative remark): visual or general observation
Text: as §4

[5] = molecular target: CRBN-DDB1 (cereblon DNA damage-binding protein 1 complex) (Homo sapiens, UniProt Q96SW2); experiment: Fluorescence polarization (FP) CRBN-binding assay, direct titration; conditions: 1 nM 4c titrated with CRBN-DDB1, triplicates, read-out: dissociation constant (Kd)
Text: Medicinal chemistry scope was expanded by the synthesis of a few representative linkers, which were elaborated to modalities adorned with a cellular marker, an E3 ligase motif, and a free alcohol function. […] Initially, treatment with Pd(dba)2, dppb, and thiosalicylic acid removed the allyl protecting group to give 2m in 39% yield. The resulting secondary amine was coupled to a bodipy-containing carboxylic acid 3([25]) to afford the Boc-protected linker 4a (82% yield, Scheme 3). Simple Boc removal with acid exposed the secondary amine 4b intermediate, which was coupled to an acid comprising E3 ligand affording 4c. Such modalities have a free “handle” that could be added to a POI-binding ligand of choice, e.g., by substitution chemistry, esterification, or ether formation. […]
as §1, §2, §3

P-gp (Homo sapiens, UniProt P08183), sequence (P08183 whole entry): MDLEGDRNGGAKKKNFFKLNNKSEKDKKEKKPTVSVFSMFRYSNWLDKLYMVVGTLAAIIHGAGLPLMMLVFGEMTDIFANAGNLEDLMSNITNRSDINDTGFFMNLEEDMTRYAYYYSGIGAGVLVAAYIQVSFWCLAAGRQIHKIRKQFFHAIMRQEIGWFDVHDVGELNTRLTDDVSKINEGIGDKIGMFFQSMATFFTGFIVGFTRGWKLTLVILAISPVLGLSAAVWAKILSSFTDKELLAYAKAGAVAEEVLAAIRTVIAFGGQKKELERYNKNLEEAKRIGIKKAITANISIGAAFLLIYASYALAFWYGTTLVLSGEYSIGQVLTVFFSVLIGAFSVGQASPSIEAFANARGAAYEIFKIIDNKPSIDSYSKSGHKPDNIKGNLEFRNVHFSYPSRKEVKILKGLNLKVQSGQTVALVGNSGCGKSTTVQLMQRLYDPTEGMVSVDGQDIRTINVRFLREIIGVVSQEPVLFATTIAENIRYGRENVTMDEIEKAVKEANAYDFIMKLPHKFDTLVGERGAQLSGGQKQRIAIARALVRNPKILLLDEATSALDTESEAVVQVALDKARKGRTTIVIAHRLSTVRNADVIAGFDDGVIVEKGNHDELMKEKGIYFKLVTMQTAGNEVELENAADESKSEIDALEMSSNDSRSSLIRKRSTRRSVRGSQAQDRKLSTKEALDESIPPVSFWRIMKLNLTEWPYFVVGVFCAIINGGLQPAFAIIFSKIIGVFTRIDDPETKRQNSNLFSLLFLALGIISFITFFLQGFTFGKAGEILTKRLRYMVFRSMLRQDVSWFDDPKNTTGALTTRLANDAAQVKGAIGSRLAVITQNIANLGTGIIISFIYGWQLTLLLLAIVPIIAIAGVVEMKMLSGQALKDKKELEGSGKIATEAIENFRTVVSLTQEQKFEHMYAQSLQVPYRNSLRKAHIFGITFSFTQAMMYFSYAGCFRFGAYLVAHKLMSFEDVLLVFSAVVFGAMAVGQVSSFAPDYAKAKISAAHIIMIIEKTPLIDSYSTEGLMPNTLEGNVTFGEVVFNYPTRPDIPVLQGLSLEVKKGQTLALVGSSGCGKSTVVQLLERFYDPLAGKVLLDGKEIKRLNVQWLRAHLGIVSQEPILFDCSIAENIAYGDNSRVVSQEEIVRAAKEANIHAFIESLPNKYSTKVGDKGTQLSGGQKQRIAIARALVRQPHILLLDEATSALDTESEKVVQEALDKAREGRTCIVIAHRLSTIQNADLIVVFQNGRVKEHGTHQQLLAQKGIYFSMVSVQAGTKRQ
CRBN-DDB1 (cereblon DNA damage-binding protein 1 complex), sequence (Q96SW2 whole entry): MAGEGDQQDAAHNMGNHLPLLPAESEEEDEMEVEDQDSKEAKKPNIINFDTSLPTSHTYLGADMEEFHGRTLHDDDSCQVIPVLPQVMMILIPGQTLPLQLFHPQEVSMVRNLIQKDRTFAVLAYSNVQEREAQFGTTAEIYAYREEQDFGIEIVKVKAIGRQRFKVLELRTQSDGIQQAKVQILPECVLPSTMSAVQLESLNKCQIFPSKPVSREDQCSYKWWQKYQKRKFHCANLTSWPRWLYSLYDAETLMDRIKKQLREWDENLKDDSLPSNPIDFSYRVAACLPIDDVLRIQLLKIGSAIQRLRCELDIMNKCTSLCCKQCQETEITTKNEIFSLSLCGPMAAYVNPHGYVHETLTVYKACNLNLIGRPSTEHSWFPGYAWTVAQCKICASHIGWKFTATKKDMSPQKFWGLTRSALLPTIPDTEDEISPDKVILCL
CRBN-DDB1 (cereblon DNA damage-binding protein 1 complex), sequence (Q16531 whole entry partner): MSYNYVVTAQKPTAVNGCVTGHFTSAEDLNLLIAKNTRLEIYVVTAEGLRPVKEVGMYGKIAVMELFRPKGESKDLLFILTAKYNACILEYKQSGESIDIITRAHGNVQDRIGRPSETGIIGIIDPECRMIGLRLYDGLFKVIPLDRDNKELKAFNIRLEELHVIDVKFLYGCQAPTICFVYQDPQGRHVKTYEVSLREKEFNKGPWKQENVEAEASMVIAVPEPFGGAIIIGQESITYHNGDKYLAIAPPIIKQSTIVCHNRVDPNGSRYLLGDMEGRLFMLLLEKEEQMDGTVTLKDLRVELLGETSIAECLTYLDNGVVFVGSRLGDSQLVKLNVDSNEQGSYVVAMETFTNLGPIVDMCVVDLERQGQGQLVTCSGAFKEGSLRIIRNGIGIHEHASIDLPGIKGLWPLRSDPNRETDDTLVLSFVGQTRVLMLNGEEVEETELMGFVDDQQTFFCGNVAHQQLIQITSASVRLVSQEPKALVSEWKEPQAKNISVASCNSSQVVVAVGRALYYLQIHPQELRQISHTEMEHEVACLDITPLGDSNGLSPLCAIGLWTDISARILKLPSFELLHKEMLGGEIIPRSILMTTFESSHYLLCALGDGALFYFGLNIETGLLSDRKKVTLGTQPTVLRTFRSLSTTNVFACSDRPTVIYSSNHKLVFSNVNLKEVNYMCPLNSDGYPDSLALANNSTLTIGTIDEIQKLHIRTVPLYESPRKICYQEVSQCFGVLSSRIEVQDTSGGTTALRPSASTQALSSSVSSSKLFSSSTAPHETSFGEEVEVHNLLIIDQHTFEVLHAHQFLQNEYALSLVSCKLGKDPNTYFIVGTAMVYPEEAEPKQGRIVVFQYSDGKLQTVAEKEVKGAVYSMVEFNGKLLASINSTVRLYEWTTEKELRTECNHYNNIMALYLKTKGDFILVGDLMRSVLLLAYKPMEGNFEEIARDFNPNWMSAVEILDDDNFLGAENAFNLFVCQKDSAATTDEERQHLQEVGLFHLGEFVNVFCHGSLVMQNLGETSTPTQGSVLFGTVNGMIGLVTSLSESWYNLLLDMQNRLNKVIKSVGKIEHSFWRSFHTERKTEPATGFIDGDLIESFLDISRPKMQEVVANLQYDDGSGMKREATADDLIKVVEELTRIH

SMILES	DC50 (BRD4; 18 h after dosage)	degradation on addition of proteasome or neddylation inhibitors or thalidomide (BRD4 long and short; 10 µM 7a with 10 µM MG132, MLN4924 or thalidomide, 18 h)	concentration range degrading BRD4 long and short (BRD4 long and short; HEK293 cell line, 18 h treatment)	half-life at 1 h [1]	microsomal CLint [1]	A-B Permeability [2]	Papp A→B [2]	Papp B→A [2]	efflux ratio (P-gp [3])	P-gp Substrate (P-gp [4])	solubility (Solubility)	DC50 (BRD4; 18 h)	solubility (qualitative remark) (Solubility)	Kd [5]
Cc1sc2c(c1C)C(c1ccc(Cl)cc1)=N[C@@H](CC(=O)NCCNC(=O)c1ccc(SCCC#CC(C3CCOCC3)N3CCC(NC(=O)COc4cccc5c4C(=O)N(C4CCC(=O)NC4=O)C5=O)CC3)cc1)c1nnc(C)n1-2 (stereo partly shown) [Compound 7a]	89.4 nM	reversed	300 to 1000 nM	6.64 min	209 µL/min/mg	low permeability and Low	0.007 ×10⁻⁶ cm/s	0.01 ×10⁻⁶ cm/s	1.4	Not-Substrate	low solubility			
Cc1sc2c(c1C)C(c1ccc(Cl)cc1)=N[C@@H](CC(=O)NCC#CC(C1CCN(C(=O)COc3cccc4c3C(=O)N(C3CCC(=O)NC3=O)C4=O)CC1)N1CCN(C(=O)COc3cccc4c3C(=O)N(C3CCC(=O)NC3=O)C4=O)CC1)c1nnc(C)n1-2 (stereo partly shown) [Compound 7c]				17.5 min	79.1 µL/min/mg	low permeability and Low	< 0.1 ×10⁻⁶ cm/s	< 0.1 ×10⁻⁶ cm/s			low solubility	> 1000 nM	poor solubility	
CC1=CC(C)=[N+]2C1=C(CCC(=O)N1CCN(C(C#CCCO)C3CCC(NC(=O)CCOCCOCCNC(=O)c4ccc5c(c4)C(=O)N(C4CCC(=O)NC4=O)C5=O)CC3)CC1)c1c(C)cc(C)n1[B-]2(F)F (stereo not shown) [Compound 4c]														166 ± 3.5 nM
Cc1ncsc1-c1ccc(CNC(=O)[C@@H]2C[C@@H](O)CN2C(=O)[C@@H](NC(=O)CCCCC(=O)NC2CCN(C(C#CCCSc3ccc(C(=O)NCCNC(=O)C[C@@H]4N=C(c5ccc(Cl)cc5)c5c(sc(C)c5C)-n5c(C)nnc54)cc3)C3CCOCC3)CC2)C(C)(C)C)cc1 (stereo partly shown) [Compound 7b]												> 1000 nM	poor solubility; also recorded: visibly poorly soluble	
